Data: patent US20210038668A1, “TRADITIONAL CHINESE MEDICINE COMPOSITION FOR PREVENTING AND/OR TREATING ISCHEMIC REPERFUSION INJURY” (TASLY PHARMACEUTICAL GROUP CO., LTD., priority 2018, published 2021)

Legend:
Assay type in all cases: in vivo, C57BL/6 mice
[1] = system: cerebral hemorrhage; test: Hemoglobin in right hemisphere tissue (cerebral hemorrhage); details: 24 h after administration, tPA 10 mg/kg alone, T541 20 mg/kg + tPA 10 mg/kg
Description: After reperfused for 24 hours, mice were perfused via heart by a PBS buffer precooled at 4° C. and separated brain via craniotomy; the brain was cut from front to back into 5 slices in a brain stereotaxic apparatus; bleeding condition was rapidly shoot by a stereoscopic microscope; then slices were stored at −80° C.; and hemoglobin was measured by a hemoglobin spectrophotometry cassette.

[2] = system: 8-OHdG; test: ELISA of 8-OHdG in brain tissue; details: brain tissue 24 hours after administration; tPA 10 mg/kg alone or + T541 20 mg/kg or ingredients at Table 7 doses
Source text: To compare the therapeutical effect on reperfusion injury caused by tPA thrombolysis between the traditional Chinese medicinal composition of the present invention and each ingredient (total saponins of Astragalus, the experiment was divided into the following group (tPA is combined with T541, individual ingredient thereof and compatibility of any two ingredients) specifically as follows: tPA+total saponins of Astragalus (tPA+HQ), tPA+ salvianolic acids (tPA+DS), tPA+Panax notoginseng saponins (tPA+SQ), tPA+ total saponins of Astragalus+salvianolic acids (tPA+HQ+DS), tPA+ total saponins of Astragalus+Panax notoginseng saponins (tPA+HQ+SQ), tPA+ salvianolic acids+Panax notoginseng saponins (tPA+DS+SQ) and tPA+T541. Normal saline served as an isovolumetric control. The usage number in each group is 6.
ELISA adsorption kit was used to measure the change on the content of MDA, 8-hydroxyl-2′-deoxyguanosine (8-OHdG), adenosine triphosphate (ATP), adenosine diphosphate (ADP) and adenosine monophosphate (AMP) in the penumbra field of brain tissue cortex of the mode, and the change on the activity of mitochondrial complexes I, II, IV and V. 6 samples were used to repeat the independent experiment for at least three times for each group of data.

[3] = system: ATP5D; test: ATP5D content in brain tissue; details: brain tissue 24 hours after administration, sham = 1.00; tPA 10 mg/kg alone; T541 20 mg/kg + tPA 10 mg/kg
Description: After reperfused for 24 hours, mice were perfused by normal saline; Western blotting analysis was conducted to the penumbra field of infarcted right cerebral cortex. After perfused, mice brain tissue was taken out; cerebellum and prefrontal lobe were cut off; the brain tissue of right brain close to 1 cm of the central joint of left and right hemispheres along the sagittal view; infarcted penumbra field of the rest tissues was cut off along an 45° angle; the cerebral cortex of the penumbra field was peeled off and preserved at low temperature. Right cerebral cortex was taken and added 1×RIPA lysate and a Cocktail protease inhibitor (1:100, Cell Signaling Technology, US) for full pyrolysis and ultrasonic treatment, and then 17000 g were centrifuged for 30 minutes. Supernatant was taken and added 5×loading buffer by volume, boiled for 20 minutes in boiling water, and then preserved at −80° C. Excessive supernatant was taken out and quantified by a BCA protein quantification liquor (ThermoScientific, US) to measure absorbance value at 560 nm of ELIASA and to calculate the protein concentration according to a standard curve. […] The density of electrophoretic strips was analyzed by an image analysis software Quantityone. […]

[4] = system: cerebral cortex vessels and neurons in penumbra; test: Transmission electron microscopy of cerebral cortex; details: 24 h after administration
Description: Transmission electron microscope (IEM): after reperfused for 24 hours, anesthetized mice were perfused 3% glutaraldehyde for 40 minutes via ventriculus sinister at a rate of 3 ml/min; the brain was taken, and the mice right cortex was cut into small pieces (1 mm×1 mm×1 mm); small pieces were immobilized in 3% glutaraldehyde for 30 minutes at room temperature or stored over night at 4° C. The brain pieces were washed on a table containing sucrose for 3 times for 15 minutes, immobilized by osmic acid for 2 hours at room temperature, washed by 0.2; PBS for 3 times for 15 minutes, dehydrated for 15 minutes respectively by 30%, 50%, 70% and 90% acetone, and dehydrated for 15 minutes for 15 minutes by 100% acetone, then preimpregnated into a pre-embedding agent mixed by 100% acetone and embedding agent according to a ratio of 1:1; and kept over the night at 37° C.; then brain pieces were impregnated by a pure embedding agent for 24 hours at 37° C., and cured for 48 hours, then naturally cooled; afterwards, brain pieces were trimmed and cut into slices with the thickness of 60 nm. The slices were stained by uranyl acetate and lead citrate, and observed and shoot by a IEM (JEM 1230, JEOL, Tokyo, Japan).

[5] = system: brain tissue (edema); test: Brain tissue dry/wet weight ratio; details: 24 h after administration; tPA 10 mg/kg alone; T541 20 mg/kg + tPA 10 mg/kg
Description: Brain tissue dry/wet weight ratio: after reperfused for 24 hours, mice were immediately anesthetized; the head was cut off to take brain; left and right brain was respectively weighed (denoted as wet weight). Afterwards, the brain was placed into a 60° C. drying oven for drying for 72 hours, and then weighed (denoted as dry weight). Brain tissue dry/wet weight ratio is calculated by […].

[6] = tPA alone, T541 combined with tPA

“tPA: tissue-type plasminogen activator (tPA) for thrombolysis” gave a Hemoglobin [1] of 13.55 ± 3.72, a 8-OHdG [2] of 1.84 ± 0.11 and an ATP5D [3] of 0.71 ± 0.05. For the same substance, the “TEM: vascular endothelium and perivascular edema (in words)” value ([4]; tPA 10 mg/kg alone, T541 20 mg/kg + tPA) was “vascular endothelium is rough, and has obvious edema gap with surrounding tissues”, the “TEM: endothelial cell adhesion structure of cerebral cortex vessels (in words)” value [4, 6] was “the close adhesion structure of cerebral cortex vessels in penumbra field is opened” and the “TEM: neurons of cerebral cortex in penumbra (in words)” value [4, 6] was “bodies of neuron shrink and deform”. The “Brain dry/wet weight ratio” value [5] was 0.801 ± 0.002.
